According to patent publication US20110044943A1, “Anti-Viral Compounds, Compositions, And Methods Of Use” (priority 2007, published 2011):

Test: Replicon Assay (luciferase, ET cell line)
Type: cell-based, HCV
Settings: Hepatitis C virus; tested at 10 μM; inhibition of replication relative to no compound control; luciferase 48-72 hours
Source text: A cell line, ET (Huh-lucubineo-ET) was used for screening of compounds, or pharmaceutically acceptable salts or solvates, described herein for inhibition of HCV RNA dependent RNA polymerase. The ET cell line was stably transfected with RNA transcripts harboring a I389luc-ubi-neo/NS3-3′/ET; replicon with firefly luciferase-ubiquitin-neomycin phosphotransferase fusion protein and EMCV-IRES driven NS3-5B polyprotein containing the cell culture adaptive mutations (E1202G; T1280I; K1846T) (Krieger at al, 2001 and unpublished). The ET cells were grown in DMEM, supplemented with 10% fetal calf serum, 2 mM Glutamine, Penicillin (100 IU/mL)/Streptomycin (100 μg/mL), 1× nonessential amino acids, and 250 μg/mL G418 (“Geneticin”). They were all available through Life Technologies (Bethesda, Md.). The cells were plated at 0.5-1.0×10^4 cells/well in the 96 well plates and incubated for 24 hrs before adding the test compounds. […] Luciferase activity was measured 48-72 hours later by adding a lysis buffer and the substrate (Catalog number Glo-lysis buffer E2661 and Bright-Glo luciferase system E2620 Promega, Madison, Wis.). […] Under the same condition, cytotoxicity of the compounds was determined using cell proliferation reagent, WST-1 (Roche, Germany). […] EC50 and similarly TC50 values were calculated by fitting % inhibition at each concentration to the following equation: […]

Structure (SMILES): Fc1cccc(-c2nc3cnn(Cc4cc(-c5ccc(Oc6ccccn6)cc5)no4)cc-3n2)c1F [Compound 217]
- inhibition at 10 µM: 85.3%
